Measured values from ChEMBL document CHEMBL4680351, “Antimicrobial and cytotoxic effects of ammonium derivatives of diterpenoids steviol and isosteviol” (Bioorg Med Chem, 2021).
Values after ≈ are worked out from the molar mass of the structure shown. Non-standard residues stand in square brackets, D forms with d. Residues, ends and D or L forms follow the SMILES beside them. Orn = NCCC[C@H](N)C(=O)O

Assays:
[1] = Hemolytic activity against human erythrocytes after 1 hr by digital photoelectric colorimetric method; assay type: ADME, cell-based, Erythrocyte
Staphylococcus aureus [2] = experiment: Antibacterial activity against Staphylococcus aureus MRSA-1 assessed as bacterial growth inhibition in Mueller-Hinton broth 2 measured every 24 hrs for 5 days by serial dilution method; assay type: functional; conditions: MRSA-1, 120 h, time 5 day
Staphylococcus aureus [3] = experiment: Bactericidal activity against Staphylococcus aureus 209P measured every 24 hrs for 5 days by serial dilution method; assay type: functional; conditions: 120 h, time 5 day
Staphylococcus aureus [4] = experiment: Bactericidal activity against Staphylococcus aureus MRSA-2 measured every 24 hrs for 5 days by serial dilution method; assay type: functional; conditions: MRSA-2, 120 h, time 5 day
Staphylococcus aureus [5] = experiment: Antibacterial activity against Staphylococcus aureus MRSA-2 assessed as bacterial growth inhibition in Mueller-Hinton broth 2 measured every 24 hrs for 5 days by serial dilution method; assay type: functional; conditions: MRSA-2, 120 h, time 5 day
Staphylococcus aureus [6] = experiment: Antibacterial activity against Staphylococcus aureus 209P assessed as bacterial growth inhibition in Mueller-Hinton broth 2 measured every 24 hrs for 5 days by serial dilution method; assay type: functional; conditions: 120 h, time 5 day
Staphylococcus aureus [7] = experiment: Bactericidal activity against Staphylococcus aureus MRSA-1 measured every 24 hrs for 5 days by serial dilution method; assay type: functional; conditions: MRSA-1, 120 h, time 5 day

Row | MIC (Staphylococcus aureus [2]) [µM] | MIC (Staphylococcus aureus [5]) [µM] | MIC (Staphylococcus aureus [6]) [µM] | Structure (SMILES) | HC50 at 1 h [1] [µM] | MBC (Staphylococcus aureus [3]) [µM] | MBC (Staphylococcus aureus [4]) [µM] | MBC (Staphylococcus aureus [7]) [µM]
1 | – | – | – | CC(C)C[C@@H]1NC(=O)[C@H](CCCN)NC(=O)[C@H](C(C)C)NC(=O)[C@@H]2CCCN2C(=O)[C@@H](Cc2ccccc2)NC(=O)[C@H](CC(C)C)NC(=O)[C@H](CCCN)NC(=O)[C@H](C(C)C)NC(=O)[C@@H]2CCCN2C(=O)[C@@H](Cc2ccccc2)NC1=O [GRAMICIDIN S] (cyclo(L[dF]PV[Orn]L[dF]PV[Orn])) | 9.4 | – | – | –
2 | 85.7 (≈ 31.3 µg/mL) | 85.7 (≈ 31.3 µg/mL) | 0.7 (≈ 0.256 µg/mL) | CC1(C)S[C@@H]2[C@H](NC(=O)[C@H](N)c3ccc(O)cc3)C(=O)N2[C@H]1C(=O)O [AMOXICILLIN] | – | 2.5 (≈ 0.914 µg/mL) | 85.7 (≈ 31.3 µg/mL) | 85.7 (≈ 31.3 µg/mL)
